For data set [1], the system named is Trypanosoma cruzi. In words: Antitrypanosomal activity against Trypanosoma cruzi Tulahuen C2C4 amastigotes infected in rat L6 cells after 96 hrs by photometric analysis. It counts as functional, organism-based. To be noted: Tulahuen C2C4, L6, 96 h.
Data set [2] relates to Trypanosoma brucei rhodesiense. In words: Antitrypanosomal activity against Trypanosoma brucei rhodesiense STIB 900 trypomastigotes after 72 hrs by Alamar blue assay. Format: functional, organism-based. To be noted: STIB 900, 72 h. (The colour change of resazurin is a common sign of viable cells or microbes.)
The next data set deals with L6. In words: Cytotoxicity against rat L6 cells after 72 hrs by Alamar blue assay. It counts as cell-based. To be noted: L6, 72 h.
A short description of data set [3]: Selectivity index, ratio of IC50 for rat L6 cells to IC50 for Trypanosoma cruzi Tulahuen C2C4 amastigotes infected in rat L6 cells. It counts as toxicity, cell-based. The conditions noted are these: read-out: Ratio IC50.
A further data set deals with Plasmodium falciparum. In words: Antiplasmodial activity against erythrocytic stage of Plasmodium falciparum K1 after 48 hrs by [3H]-hypoxanthine incorporation assay. Format: functional, organism-based.
The subject of the next data set is Leishmania donovani. In words: […] activity against Leishmania donovani MHOM-ET-67/L82 amastigotes after 72 hrs by Alamar blue assay. Format: functional, organism-based. The conditions noted are these: MHOM-ET-67/L82, 72 h.
Data set [4] deals with Trypanosoma cruzi. In words: Ratio of Benznidazole IC50 to compound IC50 for Trypanosoma cruzi Tulahuen C2C4 amastigotes infected in rat L6 cells. It counts as functional.
Data set [5] can be described thus: Metabolic stability in human liver microsomes assessed as CYP-dependent metabolism after 60 mins by LC-UV-MS analysis. It counts as ADME, Microsome. The conditions noted are these: 1 h. On the technique in general: Liver microsomes are a subcellular fraction often used to study metabolism.
Data set [6] concerns the target Sterol 14-alpha demethylase (Trypanosoma cruzi (strain CL Brener)) (UniProt Q7Z1V1). In words: Inhibition of Trypanosoma cruzi CYP51.

Structures are written as SMILES. Activity calls are given as the source filed them. The calls are words filed in the database; no cut-off is given here. Where only a bound is given, the exact number is not on record here.

Sequence of Sterol 14-alpha demethylase (Trypanosoma cruzi (strain CL Brener)) (Q7Z1V1 whole entry, looked up): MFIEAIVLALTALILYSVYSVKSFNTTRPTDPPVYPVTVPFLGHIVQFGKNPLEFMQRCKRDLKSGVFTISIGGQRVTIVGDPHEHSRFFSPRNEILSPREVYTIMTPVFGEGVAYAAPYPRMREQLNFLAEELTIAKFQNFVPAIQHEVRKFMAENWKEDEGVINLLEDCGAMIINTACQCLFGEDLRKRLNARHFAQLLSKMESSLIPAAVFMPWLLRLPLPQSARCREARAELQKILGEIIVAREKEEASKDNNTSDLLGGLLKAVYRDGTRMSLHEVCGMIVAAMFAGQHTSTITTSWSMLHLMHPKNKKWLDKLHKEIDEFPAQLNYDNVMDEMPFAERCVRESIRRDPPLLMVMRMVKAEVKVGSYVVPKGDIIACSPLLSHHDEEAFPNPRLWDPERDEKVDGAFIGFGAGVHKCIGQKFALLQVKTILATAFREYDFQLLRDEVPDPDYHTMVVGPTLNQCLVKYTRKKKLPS

For the molecule `O=C(Cn1ccnc1[N+](=O)[O-])NCc1ccccc1` [BENZNIDAZOLE], inhibition in the data set with Trypanosoma cruzi [1] was half-maximal at 1.67 µM (IC50).

`CC(C)c1ccc(NC(=O)OC(Cn2ccnc2)c2ccc(F)cc2)cc1` (racemic): the IC50 amounted to 19.1 µM in [2]; 0.005 µM in the data set with Trypanosoma cruzi [1]; 16.8 µM with L6; 4.6 µM with Plasmodium falciparum; 15 µM in the data set with Leishmania donovani. Besides, the selectivity ratio in data set [3] was 3360.

Take `O=C(Nc1cc(Cl)nc(Cl)c1)O[C@H](Cn1ccnc1)c1ccc(Cl)cc1`: the “Ratio IC50” value in the data set with Trypanosoma cruzi [4] is reported as “<=1000”. Also, the IC50 in the data set with Trypanosoma cruzi [1] turned out to be 0.0236 µM; in the data set on L6, 31.6 µM. The selectivity ratio in [3] came to 1340.

With `O=C(Nc1cc(Cl)nc(Cl)c1)OC(Cn1ccnc1)c1ccc(Cl)cc1` (racemic), the IC50 is 34 µM in [2]; 0.036 µM in the data set on Trypanosoma cruzi [1]; 27.2 µM with L6; 1.5 µM in the data set with Plasmodium falciparum; 11.4 µM in the data set on Leishmania donovani. Moreover, the selectivity ratio in data set [3] turned out to be 749.

For `O=C(O[C@H](Cn1ccnc1)c1ccccc1)c1ccc(-c2ccccc2)cc1`, the “Ratio IC50” value in the data set on Trypanosoma cruzi [4] is “<=1000”. Also, the half-maximal inhibitory concentration (IC50) in the data set on Trypanosoma cruzi [1] came out at 0.0038 µM; in the data set with L6, 18.2 µM. Further, in data set [3], the selectivity ratio came to 4800. In addition, the Stability result in data set [5] is reported as “Unstable”.

Turning to `CC(C)c1ccc(NC(=O)O[C@@H](Cn2ccnc2)c2ccc(Cl)cc2)cc1`, the IC50 in the data set on Trypanosoma cruzi [1] is 0.112 µM; in the data set with L6, 14 µM. Further, in data set [3], the selectivity ratio came to 125.

Turning to `CC(C)c1ccc(NC(=O)OC(Cn2ccnc2)c2ccc(Cl)cc2)cc1` (racemic), the IC50 in data set [2] was found to be 18.2 µM; with Trypanosoma cruzi [1] it was 0.005 µM; with L6, 13 µM; with Plasmodium falciparum, 1.8 µM; with Leishmania donovani, 7 µM. In addition, the selectivity ratio in data set [3] turned out to be 2490.

On to `O=C(OC(Cn1ccnc1)c1ccccc1)c1ccc(-c2ccccc2)cc1` (racemic), for which the IC50 in [2] is 42.1 µM; in the data set on Trypanosoma cruzi [1], 0.014 µM; with L6 it was 23.6 µM; in the data set with Plasmodium falciparum, 2.2 µM; in the data set on Leishmania donovani, 5.4 µM. In data set [3], the selectivity ratio was determined as 1580.

On to `CCCCCCCCCCCCCCCCOP(=O)([O-])OCC[N+](C)(C)C` [MILTEFOSINE], for which, in the data set with Leishmania donovani, 0.366 µM corresponded to half-maximal inhibition (IC50).

Regarding `O=C(Nc1cc(Cl)nc(Cl)c1)OCCN1CCOCC1`, the IC50 in [2] came out at 117 µM; with Trypanosoma cruzi [1] it was 133 µM; in the data set with L6, 79.3 µM; in the data set on Plasmodium falciparum, 23.1 µM; in the data set with Leishmania donovani it was 123 µM. The inhibition entry in data set [6] was “inactive”. In [3], the selectivity ratio came out at 0.6.

Turning to `O=C(Nc1cc(Cl)nc(Cl)c1)O[C@@H](Cn1ccnc1)c1ccc(Cl)cc1`, the figures for the IC50 in the data set on Trypanosoma cruzi [1] and in the data set with L6 were 0.0972 µM and 15.4 µM, respectively. For the same molecule, the selectivity ratio in data set [3] worked out at 158.

Take `O=C(Nc1ccnc(Cl)c1)OCCN1CCOCC1`: the IC50 in [2] came to 230 µM; in the data set with Trypanosoma cruzi [1], 175 µM; in the data set on L6, 238 µM; in the data set on Plasmodium falciparum it was 79.8 µM; in the data set on Leishmania donovani, 190 µM. Moreover, the inhibition result in [6] is “inactive”. The selectivity ratio in [3] stood at 1.3.

For `Cc1ncc([N+](=O)[O-])n1CCOC(=O)Nc1ccncc1Br`, the IC50 was determined as 139 µM in [2]; 48.4 µM in the data set on Trypanosoma cruzi [1]; 222 µM in the data set on L6; 60.2 µM in the data set on Plasmodium falciparum; 85.1 µM in the data set on Leishmania donovani. Further, the inhibition result in data set [6] is “inactive”. The selectivity ratio in data set [3] is 4.6.

In the case of `O=C(COc1ccccc1)OC(Cn1ccnc1)c1ccc(F)cc1` (racemic), the half-inhibitory concentration (IC50) in data set [2] was 294 µM; in the data set on Trypanosoma cruzi [1], 24.4 µM; in the data set on L6 it was 182 µM; in the data set with Plasmodium falciparum, 36.7 µM; in the data set with Leishmania donovani it was 17.3 µM. For the same molecule, the selectivity ratio in [3] turned out to be 7.5.

With `CC(C)c1ccc(NC(=O)O[C@H](Cn2ccnc2)c2ccc(Cl)cc2)cc1`, the “Ratio IC50” value with Trypanosoma cruzi [4] was “<=1000”. Also, the IC50 came out at 0.0018 µM in the data set on Trypanosoma cruzi [1] and 13.4 µM in the data set on L6. The selectivity ratio in data set [3] stood at 7470. Besides, the Stability entry in data set [5] was “Unstable”.

For the molecule `COc1cc([C@@H]2c3cc4c(cc3[C@H](O)[C@H]3COC(=O)[C@H]23)OCO4)cc(OC)c1OC` [PODOFILOX], it took 0.001 µM to reach half-maximal inhibition with L6 (IC50).

With `O=C(O[C@@H](Cn1ccnc1)c1ccccc1)c1ccc(-c2ccccc2)cc1`, the IC50 with Trypanosoma cruzi [1] was 0.193 µM; with L6 it was 27.5 µM. Further, the selectivity ratio in [3] worked out at 143.

Broadly, the IC50 is the concentration at which inhibition is half-maximal. Read a high IC50 as lower potency.
